Experiments:
[1] = Competitive inhibition of recombinant GES-5 expressed in Escherichia coli BL21(DE3) using nitrocefin substrate by spectrophotometry
[2] = Inhibition of Pseudomonas aeruginosa AmpC expressed in Escherichia coli BL21(DE3) using cephalothin as reporter substrate incubated for 300 secs by spectrophotometric assay
[3] = Inhibition of Klebsiella pneumoniae KPC2 using cephalothin as reporter substrate incubated for 300 secs by spectrophotometric assay
[4] = Inhibition of bacterial NDM1 using cephalothin as reporter substrate incubated for 300 secs by spectrophotometric assay; design: species or system Bacteria
[5] = Inhibition of bacterial OXA-24 using cephalothin as reporter substrate incubated for 300 secs by spectrophotometric assay; design: species or system Bacteria

| Structure (SMILES) | Ki [1] [µM] | Ki [2] [nM] | Ki [3] [µM] | Ki [4] [µM] | Ki [5] [µM] |
| --- | --- | --- | --- | --- | --- |
| O=CN(C=O)Cc1ccc2sc(B(O)O)cc2c1 | 24 | 40 |  |  |  |
| O=C(O)c1cccc2cc(B(O)O)sc12 | 0.16 | 420 | 4.9 | 3 | 16 |
| OB(O)c1cc2cc(CBr)ccc2s1 | 8.9 | 70 | 2.8 | 5.9 | 67 |
| CC(C)(C)OC(=O)c1cccc2cc(B(O)O)sc12 | 17 | 1300 | 3.2 | 3.2 | 27 |
| NCc1ccc2sc(B(O)O)cc2c1 | 15 | 50 | 4.4 | 5.5 | 96 |
| CC(C)(C)OC(=O)Nc1cccc2cc(B(O)O)sc12 | 5.7 | 1400 | 1.4 | 11 | 64 |

Source: ChEMBL document CHEMBL4339230, “X-ray Crystallography Deciphers the Activity of Broad-Spectrum Boronic Acid β-Lactamase Inhibitors” (ACS Med Chem Lett, 2019)
